Source: patent publication US20260022142A1, “MACROCYCLIC IMMUNOMODULATORS” (Bristol-Myers Squibb Company, priority 2022, published 2026)
Bridge positions count the residues as written; N and C are the ends. Square brackets hold non-standard residues; d marks the D form. Peptide text beside a SMILES is read from it. * marks the point of attachment. ξ: configuration not given here. Phe(4-COOH) = N[C@@H](Cc1ccc(C(=O)O)cc1)C(=O)O; Bip = N[C@@H](Cc1ccc(-c2ccccc2)cc1)C(=O)O; NH(CH2)14COOH = O=C(O)CCCCCCCCCCCCCCN*; Phe(3-Me) = Cc1cccc(C[C@H](N)C(=O)O)c1; Val(3-OH) = CC(C)(O)[C@H](N)C(=O)O; Val(3-F) = CC(C)(F)[C@H](N)C(=O)O; 4Pal = N[C@@H](Cc1ccncc1)C(=O)O; Cha = N[C@@H](CC1CCCCC1)C(=O)O; Cit = NC(=O)NCCC[C@H](N)C(=O)O; Thr(3ξ) = CC(O)[C@H](N)C(=O)O; Cba = N[C@@H](CC1CCC1)C(=O)O; Carboxymethyl = O=C(O)C*; Orn = NCCC[C@H](N)C(=O)O; Aun = NCCCCCCCCCCC(=O)O; Dab = NCC[C@H](N)C(=O)O; ξE = NC(CCC(=O)O)C(=O)O; Dap = NC[C@H](N)C(=O)O; AEEA = NCCOCCOCC(=O)O; Piv = CC(C)(C)C(=O)*

Biological target: T1, PD-1/PD-L1 interaction (PE-labeled human PD-L1-Ig binding to Jurkat cell line over-expressing human PD-1) (Homo sapiens, UniProt Q15116)
T1 construct: expressed in transfected cells; host or cells: Jurkat
Assay: Jurkat-PD-1 Cell Binding High-Content Screening Assay (CBA)
Type: cell-based
Conditions: Jurkat cell line over-expressing human PD-1; PE-labeled PD-L1-Ig 20 nM final; read-out: Jurkat hPD1-PDL1 IC50
Method in brief: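 Jurkat-hPD-1 cells, DMEM/10% FCS; cpd 2 h 37° C; PE-PD-L1-Ig 20 nM final, 1 h; 4% PFA fix + Hoechst 33342, 3× dPBS wash; high-content imaging read-out.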

T1 sequence (Q15116 25-288): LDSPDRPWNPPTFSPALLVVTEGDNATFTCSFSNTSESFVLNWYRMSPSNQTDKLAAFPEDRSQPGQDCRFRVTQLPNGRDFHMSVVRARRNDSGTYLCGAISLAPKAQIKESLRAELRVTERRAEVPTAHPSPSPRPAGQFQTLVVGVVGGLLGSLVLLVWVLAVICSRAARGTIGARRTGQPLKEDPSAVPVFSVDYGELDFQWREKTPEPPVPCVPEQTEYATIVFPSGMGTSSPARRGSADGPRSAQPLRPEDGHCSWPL

SMILES	IC50
Cc1cccc(C[C@@H]2NC(=O)[C@H](CC(=O)O)NC(=O)[C@H](Cc3ccc(OCC(=O)O)cc3)NC(=O)[C@H](CN)NC(=O)CSC[C@@H](C(=O)N[C@@H](C)C(=O)NC(CCC(=O)O)C(=O)NCCOCCOCC(=O)NCCCCCCCCCCC(=O)O)NC(=O)[C@H](CN)NC(=O)[C@H](C(C)C)NC(=O)[C@H](CC3CCCCC3)NC(=O)[C@H](CCN)NC(=O)[C@@H](CC(C)C)NC(=O)[C@H](CCCN)NC(=O)[C@H](CCCNC(N)=O)NC(=O)[C@H](Cc3ccc(-c4ccccc4)cc3)NC(=O)[C@H](C(C)C)NC2=O)c1 (stereo partly drawn) [Compound 2616] ({CH2CO}-[Dap]Y(Carboxymethyl)D[Phe(3-Me)]V[Bip][Cit][Orn][dL][Dab][Cha]V[Dap]CA[ξE][AEEA][Aun]-OH; thioether N-14)	16.1 nM
Cc1cccc(C[C@@H]2NC(=O)[C@H](CC(=O)O)NC(=O)[C@H](Cc3ccc(OCC(=O)O)cc3)NC(=O)[C@H](CN)NC(=O)CSC[C@@H](C(=O)N[C@@H](CCN)C(=O)NCCOCCOCC(=O)NCCCCCCCCCCC(=O)O)NC(=O)[C@H](C(C)O)NC(=O)[C@H](Cc3ccc(O)cc3)NC(=O)[C@H](CC3CCCCC3)NC(=O)[C@H](CCN)NC(=O)[C@@H](CC(C)C)NC(=O)[C@H](CCCN)NC(=O)[C@H](Cc3ccc(O)cc3)NC(=O)[C@H](Cc3ccc(-c4ccccc4)cc3)NC(=O)[C@H](Cc3ccc(O)cc3)NC2=O)c1 (stereo partly drawn) [Compound 2569] ({CH2CO}-[Dap]Y(Carboxymethyl)D[Phe(3-Me)]Y[Bip]Y[Orn][dL][Dab][Cha]Y[Thr(3ξ)]C[Dab][AEEA][Aun]-OH; thioether N-14)	80.2 nM
Cc1cccc(C[C@@H]2NC(=O)[C@H](CC(=O)O)NC(=O)[C@H](Cc3ccc(OCC(=O)O)cc3)NC(=O)[C@H](CCCNC(=N)N)NC(=O)CSC[C@@H](C(=O)N[C@@H](CCN)C(=O)NCCCCCCCCCCC(=O)O)NC(=O)[C@H]([C@@H](C)O)NC(=O)[C@H](C(C)C)NC(=O)[C@H](CC3CCCCC3)NC(=O)[C@H](CCN)NC(=O)[C@@H](CC(C)C)NC(=O)[C@H](CCCN)NC(=O)[C@H](CCCNC(N)=O)NC(=O)[C@H](Cc3ccc(-c4ccccc4)cc3)NC(=O)[C@H](C(C)(C)F)NC2=O)c1 [Compound 2124] ({CH2CO}-RY(Carboxymethyl)D[Phe(3-Me)][Val(3-F)][Bip][Cit][Orn][dL][Dab][Cha]VTC[Dab][Aun]-OH; thioether N-14)	17.3 nM
Cc1cccc(C[C@@H]2NC(=O)[C@H](CC(=O)O)NC(=O)[C@H](Cc3ccc(OCC(=O)O)cc3)NC(=O)[C@H](CCCNC(=N)N)NC(=O)CSC[C@@H](C(=O)N[C@@H](CNC(=O)C(C)(C)C)C(=O)NCCCCCCCCCCC(=O)O)NC(=O)[C@H](C(C)O)NC(=O)[C@H](C(C)C)NC(=O)[C@H](CC3CCCCC3)NC(=O)[C@H](CCN)NC(=O)[C@@H](CC(C)C)NC(=O)[C@H](CCCN)NC(=O)[C@H](CCCNC(N)=O)NC(=O)[C@H](Cc3ccc(-c4ccccc4)cc3)NC(=O)[C@H](C(C)C)NC2=O)c1 (stereo partly drawn) [Compound 3510] ({CH2CO}-RY(Carboxymethyl)D[Phe(3-Me)]V[Bip][Cit][Orn][dL][Dab][Cha]V[Thr(3ξ)]C[Dap](Piv)[Aun]-OH; thioether N-14)	55.3 nM
CC[C@H](C)[C@@H]1NC(=O)[C@H](Cc2ccc(-c3ccccc3)cc2)NC(=O)[C@H](C(C)C)NC(=O)[C@H](Cc2c[nH]c3ccccc23)NC(=O)[C@H](CC(=O)O)NC(=O)[C@H](Cc2ccc(OCC(=O)O)cc2)NC(=O)[C@H](Cc2ccncc2)NC(=O)CSC[C@@H](C(=O)NCCOCCOCC(=O)NCCCCCCCCCCC(=O)O)NC(=O)[C@H]([C@@H](C)O)NC(=O)[C@H](C(C)C)NC(=O)[C@H](CC(C)C)NC(=O)[C@H](CCN)NC(=O)[C@@H](CC(C)C)NC(=O)[C@H](CCCN)NC1=O [Compound 1150] ({CH2CO}-[4Pal]Y(Carboxymethyl)DWV[Bip]I[Orn][dL][Dab]LVTC[AEEA][Aun]-OH; thioether N-14)	33.5 nM
Cc1cccc(C[C@@H]2NC(=O)[C@H](CC(=O)O)NC(=O)[C@H](Cc3ccc(OCC(=O)O)cc3)NC(=O)[C@H](CCN)NC(=O)CSC[C@@H](C(=O)N[C@@H](CCN)C(=O)NCCOCCOCC(=O)NCCOCCOCC(=O)NCCCCCCCCCCCCCCC(=O)O)NC(=O)[C@H](Cc3cnc[nH]3)NC(=O)[C@H](C(C)(C)O)NC(=O)[C@H](CC3CCCCC3)NC(=O)[C@H](CCN)NC(=O)[C@@H](CC(C)C)NC(=O)[C@H](CCCN)NC(=O)[C@H](Cc3ccc(C(=O)O)cc3)NC(=O)[C@H](Cc3ccc(-c4ccccc4)cc3)NC(=O)[C@H](Cc3ccc(C(=O)O)cc3)NC2=O)c1 [Compound 3762] ({CH2CO}-[Dab]Y(Carboxymethyl)D[Phe(3-Me)][Phe(4-COOH)][Bip][Phe(4-COOH)][Orn][dL][Dab][Cha][Val(3-OH)]HC[Dab][AEEA][AEEA]-{NH(CH2)14COOH}; thioether N-14)	27.5 nM

Compounds with a lower IC50, results first:

IC50	SMILES
5 nM	Cc1cccc(C[C@@H]2NC(=O)[C@H](CC(=O)O)NC(=O)[C@H](Cc3ccc(OCC(=O)O)cc3)NC(=O)[C@H](CC3CCC3)NC(=O)CSC[C@@H](C(=O)N[C@@H](CCN)C(=O)NCCCCCCCCCCC(=O)O)NC(=O)[C@H](CO)NC(=O)[C@H](C(C)(C)O)NC(=O)[C@H](CC3CCCCC3)NC(=O)[C@H](CCN)NC(=O)[C@@H](CC(C)C)NC(=O)[C@H](CCCN)NC(=O)[C@H](Cc3ccc(OCC(=O)O)cc3)NC(=O)[C@H](Cc3ccc(-c4ccccc4)cc3)NC(=O)[C@H](Cc3ccc(OCC(=O)O)cc3)NC2=O)c1 [Compound 2233] ({CH2CO}-[Cba]Y(Carboxymethyl)D[Phe(3-Me)]Y(Carboxymethyl)[Bip]Y(Carboxymethyl)[Orn][dL][Dab][Cha][Val(3-OH)]SC[Dab][Aun]-OH; thioether N-14)
6.7 nM	Cc1cccc(C[C@@H]2NC(=O)[C@H](CC(=O)O)NC(=O)[C@H](Cc3ccc(OCC(=O)O)cc3)NC(=O)[C@H](CCCNC(=N)N)NC(=O)CSC[C@@H](C(=O)N[C@@H](CCCN)C(=O)NCCCCCCCCCCC(=O)O)NC(=O)[C@H](CCC(=O)O)NC(=O)[C@H](C(C)C)NC(=O)[C@H](CC3CCCCC3)NC(=O)[C@H](CCN)NC(=O)[C@@H](CC(C)C)NC(=O)[C@H](CCN)NC(=O)[C@H](CCCNC(N)=O)NC(=O)[C@H](Cc3ccc(-c4ccccc4)cc3)NC(=O)[C@H](C(C)C)NC2=O)c1 [Compound 2780] ({CH2CO}-RY(Carboxymethyl)D[Phe(3-Me)]V[Bip][Cit][Dab][dL][Dab][Cha]VEC[Orn][Aun]-OH; thioether N-14)
6.1 nM	Cc1cccc(C[C@@H]2NC(=O)[C@H](CC(=O)O)NC(=O)[C@H](Cc3ccc(OCC(=O)O)cc3)NC(=O)[C@H](CN)NC(=O)CSC[C@@H](C(=O)N[C@@H](C)C(=O)N[C@@H](CCC(=O)O)C(=O)NCCCCCCCCCCC(=O)O)NC(=O)[C@H]([C@@H](C)O)NC(=O)[C@H](C(C)C)NC(=O)[C@H](CC3CCCCC3)NC(=O)[C@H](CCN)NC(=O)[C@@H](CC(C)C)NC(=O)[C@H](CCCN)NC(=O)[C@H](CCC(=O)O)NC(=O)[C@H](Cc3ccc(-c4ccccc4)cc3)NC(=O)[C@H](C(C)C)NC2=O)c1 [Compound 1044] ({CH2CO}-[Dap]Y(Carboxymethyl)D[Phe(3-Me)]V[Bip]E[Orn][dL][Dab][Cha]VTCAE[Aun]-OH; thioether N-14)
